Among the data in PubChem BioAssay (NCI) are GI50 and TGI values, retold here.

Several values for one entry are separate records, joined by “and”; a condition that tells them apart may be missing. Identical values can stand only once.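 Test compounds were applied to cells in 96-well plates for 48 hours at 5 doses. GI50 is the concentration that inhibits growth by half. TGI is the concentration that stops growth completely.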

Test systems include EKVX NSCLC; HS 578T breast; KM12 colon; MOLT-4 leukemia; NCI-H226 lung; NCI-H460 lung; SN12C renal; SNB-19 CNS; SNB-75 CNS; UACC-257 melanoma.
Holding throughout (test): DTP human tumour cell line panel, 48 h

On to `O=C(COc1ccc(/C=C2\Oc3ccccc3C2=O)cc1)Nc1nccs1`, for which the GI50 in the assay on EKVX NSCLC is 51.5 µM; with HS 578T breast it was 20.7 µM; in the assay with KM12 colon, 8080 nM; in the assay with MOLT-4 leukemia, 3310 nM; with NCI-H226 lung it was 60.3 µM; with NCI-H460 lung it was 88 µM. Also, the GI50 in the assay on SN12C renal is 76.9 µM; in the assay on SNB-19 CNS, above 100 µM; in the assay with SNB-75 CNS, 17.4 µM; in the assay on UACC-257 melanoma, 39.3 µM. The TGI in the assay on EKVX NSCLC was above 100 µM; in the assay on HS 578T breast, 80.5 µM; in the assay with KM12 colon it was above 100 µM; in the assay with MOLT-4 leukemia, 19.1 µM; with NCI-H226 lung, above 100 µM; in the assay with NCI-H460 lung, above 100 µM. Moreover, the TGI was above 100 µM in the assay on SN12C renal, above 100 µM with SNB-19 CNS, 72.6 µM in the assay on SNB-75 CNS and above 100 µM in the assay with UACC-257 melanoma.
`COc1cc2ccccc2c2cc([N+](=O)[O-])oc12`: the TGI was 14.1 µM with EKVX NSCLC; 10.1 µM with HS 578T breast; 4.68 µM in the assay on KM12 colon; 3.95 µM with MOLT-4 leukemia; 3.04 µM with NCI-H226 lung; 1.06 µM with NCI-H460 lung. The TGI in the assay with SN12C renal was above 48.7 µM; in the assay on SNB-19 CNS, above 55.4 µM; with SNB-75 CNS it was 6.9 µM; in the assay on UACC-257 melanoma it was 0.443 µM.
Turning to `NC(C/[N+]([O-])=N/O)C(=O)O` (configuration not stated), the TGI is > 100 µM and 371 µM in the assay with EKVX NSCLC; above 225 µM in the assay with HS 578T breast; 31.1 µM and > 100 µM and 144 µM in the assay on KM12 colon; > 100 µM and 315 µM with MOLT-4 leukemia; above 468 µM in the assay on NCI-H226 lung; > 78.3 µM and > 100 µM and 223 µM in the assay with NCI-H460 lung. Moreover, the total growth inhibition concentration (TGI) in the assay with SN12C renal is above 464 µM; in the assay with SNB-19 CNS, > 100 µM and 268 µM; with SNB-75 CNS, above 500 µM; in the assay on UACC-257 melanoma, > 100 µM and 456 µM. Moreover, the GI50 is 543 nM in the assay with KM12 colon; 23300 nM with MOLT-4 leukemia; 14.6 µM and > 100 µM and 10.5 µM in the assay with SN12C renal; 0.595 µM and 5.93 µM and 1.36 µM in the assay on SNB-19 CNS; 13.4 µM and 10.2 µM and 101 µM with SNB-75 CNS; 18 µM and 68.2 µM and 52.5 µM in the assay with UACC-257 melanoma.
Regarding `CC(C)(C)[Si](C)(C)OCC1CCC(n2cnc3c(=O)[nH]cnc32)O1` (configuration not stated), the total growth inhibition concentration (TGI) in the assay with EKVX NSCLC, in the assay on HS 578T breast, in the assay on KM12 colon, in the assay with MOLT-4 leukemia, with NCI-H226 lung and in the assay on NCI-H460 lung was above 100 µM throughout. Further, the total growth inhibition concentration (TGI) in the assay on SN12C renal was above 100 µM; with SNB-19 CNS it was above 100 µM; in the assay on SNB-75 CNS, 99.8 µM; with UACC-257 melanoma, above 100 µM.
As to `CN(Cc1cnc(N)nc1N)c1ccc(C(=O)O)cc1`, the GI50 in the assay on EKVX NSCLC was above 100 µM; in the assay with HS 578T breast, above 100 µM; in the assay with KM12 colon, above 100000 nM; in the assay on MOLT-4 leukemia it was above 100000 nM; with NCI-H226 lung it was above 100 µM; in the assay with NCI-H460 lung, above 100 µM. For the same molecule, the GI50 in the assay on SN12C renal, in the assay with SNB-19 CNS, in the assay on SNB-75 CNS and in the assay on UACC-257 melanoma was above 100 µM in each case. Moreover, the TGI in the assay with EKVX NSCLC, with HS 578T breast, with KM12 colon, with MOLT-4 leukemia, in the assay on NCI-H226 lung and in the assay with NCI-H460 lung was above 100 µM in each case. In addition, the TGI in the assay on SN12C renal, with SNB-19 CNS, in the assay on SNB-75 CNS and in the assay with UACC-257 melanoma was above 100 µM in each case.
`COC1C(O)C(C)OC(OC2C(Oc3cccc4c(O)c5c(=O)oc6ccc(C)c7c(=O)oc(c34)c5c67)OC(C)C3O[C@H](c4ccccc4)OC32)C1O` (some centres not stated): the concentration for total growth inhibition (TGI) was 5.99 µM in the assay on EKVX NSCLC; 17.9 µM in the assay on HS 578T breast; 8.49 µM in the assay on KM12 colon; 11.5 µM in the assay with MOLT-4 leukemia; 0.836 µM with NCI-H226 lung; 1.43 µM with NCI-H460 lung. Besides, the TGI in the assay on SN12C renal came out at 6.17 µM; in the assay with SNB-19 CNS, 19.2 µM; with SNB-75 CNS it was 7.65 µM; in the assay on UACC-257 melanoma, 3.86 µM. The GI50 in the assay on KM12 colon was 331 nM and 312 nM; with MOLT-4 leukemia, 33.4 nM and 23.6 nM; in the assay on NCI-H226 lung it was 0.186 µM; with NCI-H460 lung, 0.0241 µM; in the assay on SN12C renal, 0.173 µM; in the assay with UACC-257 melanoma, 0.798 µM and 0.372 µM.
Turning to `C=C1C(=O)O[C@H]2[C@H]1CC/C(Cn1cc(CNCCc3c[nH]c4ccc(Cl)cc34)nn1)=C\CC[C@@]1(C)O[C@@H]21`, the GI50 with EKVX NSCLC is 15.5 µM; with HS 578T breast it was 11.1 µM; in the assay on KM12 colon, 17100 nM; in the assay on MOLT-4 leukemia, 2540 nM; with NCI-H226 lung it was 31.3 µM; in the assay on NCI-H460 lung, 49.1 µM. Moreover, the GI50 with SN12C renal was 2.54 µM; in the assay on SNB-19 CNS, 8.69 µM; in the assay on SNB-75 CNS it was 4.88 µM; with UACC-257 melanoma it was 10.7 µM. Further, the TGI with EKVX NSCLC was 37.4 µM; with HS 578T breast it was 53.1 µM; in the assay with KM12 colon it was 44.1 µM; in the assay with MOLT-4 leukemia, 6.56 µM; in the assay on NCI-H226 lung, above 100 µM; in the assay with NCI-H460 lung, above 100 µM. The concentration for total growth inhibition (TGI) in the assay with SN12C renal worked out at 8.24 µM; in the assay on SNB-19 CNS, 32.4 µM; with SNB-75 CNS, 17.9 µM; in the assay with UACC-257 melanoma it was 27 µM.
As to `COc1ccc2c(c1)[C@]1(C[C@H]1c1ccc3c(/C=C/c4ccc(CN5C[C@@H](C)O[C@@H](C)C5)cc4)n[nH]c3c1)C(=O)N2`, the GI50 in the assay with EKVX NSCLC was 6.01 µM; in the assay with HS 578T breast, 4.84 µM; in the assay with KM12 colon it was 14.3 nM; with MOLT-4 leukemia it was 2230 nM; with NCI-H226 lung it was 14.5 µM; in the assay with NCI-H460 lung, 1.6 µM. For the same molecule, the GI50 in the assay on SN12C renal was 5.15 µM; with SNB-19 CNS, 9.74 µM; in the assay on SNB-75 CNS, 1.84 µM; in the assay with UACC-257 melanoma it was 6.8 µM. Further, the TGI in the assay with EKVX NSCLC was above 100 µM; in the assay with HS 578T breast, 49.6 µM; in the assay with KM12 colon it was above 73.6 µM; with MOLT-4 leukemia it was above 100 µM; in the assay with NCI-H226 lung, above 100 µM; in the assay with NCI-H460 lung, 12.1 µM. For the same molecule, the TGI in the assay on SN12C renal is above 56.7 µM; in the assay with SNB-19 CNS it was above 100 µM; in the assay with SNB-75 CNS, 13.4 µM; in the assay on UACC-257 melanoma, above 60.5 µM.
